system: KM12-luc cells; test: Cell proliferation and growth inhibition assay (CCK-8) in KM12-luc; type: cell-based; settings: KM12-Luc, 72 h, KM12-luc cells, treated with test compounds for 72 hrs, CCK-8 viability; read-out: NTRK IC50 in KM12-luc
Summary of the method: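 Cells were grown at 37 °C, 5% CO2 with 10% FBS: MV-4-11 in IMDM, H1975 in RPMI 1640, KM12-luc in DMEM. Viability was read by CCK-8 (1-4 hrs reagent incubation, absorbance at OD450). IC50 came from a non-linear sigmoidal dose-response fit.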

Point of comparison: CC(=O)Nc1cc(Nc2ncc(Cl)c(-c3cn(C)c4c(F)cccc34)n2)ccc1N1CC[C@@H](N(C)C)C1 [Compound R-415, (R)—N-(5-((5-chloro-4-(7-fluoro-1-methyl-1H-indol-3-yl)pyrimidin-2-yl)amino)-2-(3-(dimethylamino)pyrrolidin-1-yl)phenyl)acetamide], IC50 66.7 nM. Against it:
- COCCCN(C)c1cc(N2CCN(C)CC2)ccc1C(=O)Nc1c[nH]c2cnc(Nc3cc(F)cc(F)c3)nc12 [Compound 494, N-(2-((3,5-difluorophenyl)amino)-5H-pyrrolo[3,2-d]pyrimidin-7-yl)-2-((3-methoxypropyl)(methyl)amino)-4-(4-methylpiperazin-1-yl)benzamide] — higher, > 1000 nM
- Cc1nc2cc(Nc3ncc(C(F)(F)F)c(-c4cn(C)c5ccccc45)n3)ccc2n1CCN(C)C [Compound 314b, 1-(2-(dimethylamino)ethyl)-2-methyl-N-(4-(1-methyl-1H-indol-3-yl)-5-(trifluoromethyl)pyrimidin-2-yl)-1H-benzo[d]imidazol-5-amine] — 2.1-fold higher, 139 nM
- CC(=O)Nc1cc(Nc2nc(-c3c[nH]c4cc(F)ccc34)ncc2C(F)(F)F)ccc1N(C)CCN(C)C [Compound 328b, N-(2-((2-(dimethylamino)ethyl)(methyl)amino)-5-((2-(6-fluoro-1H-indol-3-yl)-5-(trifluoromethyl)pyrimidin-4-yl)amino)phenyl)acetamide] — 36-fold higher, 2420 nM
- CC(=O)Nc1cc(Nc2nc(-c3cn(C)c4cc(F)c(F)cc34)c3cc[nH]c3n2)ccc1N(C)CCN(C)C [Compound 237, N-(5-((4-(5,6-difluoro-1-methyl-1H-indol-3-yl)-7H-pyrrolo[2,3-d]pyrimidin-2-yl)amino)-2-((2-(dimethylamino)ethyl)(methyl)amino)phenyl)acetamide] — 8.1-fold higher, 537 nM
- CCN(CCN(C)C)c1ccc(Nc2ncc(C(F)(F)F)c(-c3c[nH]c4ccc(F)cc34)n2)cc1N [Compound 324, N^1-(2-(dimethylamino)ethyl)-N^1-ethyl-N^4-(4-(5-fluoro-1H-indol-3-yl)-5-(trifluoromethyl)pyrimidin-2-yl)benzene-1,2,4-triamine] — 3.8-fold lower, 17.5 nM
- CCN(CCN(C)C)c1c(F)cc(Nc2nc3c(c(-c4cn(C)c5ccccc45)n2)COCC3)cc1NC(C)=O [Compound 257d, N-(2-((2-(dimethylamino)ethyl)(ethyl)amino)-3-fluoro-5-((4-(1-methyl-1H-indol-3-yl)-7,8-dihydro-5H-pyrano[4,3-d]pyrimidin-2-yl)amino)phenyl)acetamide] — higher, > 10000 nM
- CCN(CCN(C)C)c1ccc(Nc2nc3c(c(-c4cn(C)c5ccccc45)n2)COCC3)cc1NC(C)=O [Compound 257c, N-(2-((2-(dimethylamino)ethyl)(ethyl)amino)-5-((4-(1-methyl-1H-indol-3-yl)-7,8-dihydro-5H-pyrano[4,3-d]pyrimidin-2-yl)amino)phenyl)acetamide] — higher, > 10000 nM
- CC(=O)Nc1cc(Nc2ncc(Cl)c(-c3cn(C)c4c(F)cccc34)n2)ccc1N1CC[C@H](N(C)C)C1 [Compound S-415, (S)—N-(5-((5-chloro-4-(7-fluoro-1-methyl-1H-indol-3-yl)pyrimidin-2-yl)amino)-2-(3-(dimethylamino)pyrrolidin-1-yl)phenyl)acetamide] — 2.3-fold higher, 155 nM
- Cc1cccc2c(-c3nc(Nc4ccc(N5CC[C@@H](N(C)C)C5)c(N)c4)ncc3C(F)(F)F)c[nH]c12 [Compound R-367, (R)-4-(3-(dimethylamino)pyrrolidin-1-yl)-N^1-(4-(7-methyl-1H-indol-3-yl)-5-(trifluoromethyl)pyrimidin-2-yl)benzene-1,3-diamine] — 12-fold lower, 5.7 nM
- CCN(CCN(C)C)c1ccc(Nc2nc(-c3cn(C)c4ccccc34)c3cc[nH]c3n2)cc1NC [Compound 197, N^1-(2-(dimethylamino)ethyl)-N^1-ethyl-N^2-methyl-N^4-(4-(1-methyl-1H-indol-3-yl)-7H-pyrrolo[2,3-d]pyrimidin-2-yl)benzene-1,2,4-triamine] — 5.6-fold higher, 376 nM
- CC(=O)Nc1cc(Nc2ncc(Cl)c(-c3cn(C)c4ccccc34)n2)cc(F)c1N1CCC(N(C)C)C1 (stereo not shown) [Compound 401, N-(5-((5-chloro-4-(1-methyl-1H-indol-3-yl)pyrimidin-2-yl)amino)-2-(3-(dimethylamino)pyrrolidin-1-yl)-3-fluorophenyl)acetamide] — within 1.5-fold, 49.5 nM
- CCn1cc(-c2nc(Nc3ccc(N(C)CCN(C)C)c(NC(C)=O)c3)ncc2C(F)(F)F)c2cc(F)ccc21 [Compound 391, N-(2-((2-(dimethylamino)ethyl)(methyl)amino)-5-((4-(1-ethyl-5-fluoro-1H-indol-3-yl)-5-(trifluoromethyl)pyrimidin-2-yl)amino)phenyl)acetamide] — within 1.5-fold, 50 nM
- CN(C)CCN(C)c1ccc(Nc2ncc(C(F)(F)F)c(-c3cn(C)c4ccc(F)cc34)n2)cc1N [Compound 326, N^1-(2-(dimethylamino)ethyl)-N^4-(4-(5-fluoro-1-methyl-1H-indol-3-yl)-5-(trifluoromethyl)pyrimidin-2-yl)-N^1-methylbenzene-1,2,4-triamine] — within 1.5-fold, 58.2 nM
- CCC(=O)Nc1cc(Nc2ncc(C(F)(F)F)c(-c3c[nH]c4cc(F)ccc34)n2)ccc1N(CC)CCN(C)C [Compound 330a, N-(2-((2-(dimethylamino)ethyl)(ethyl)amino)-5-((4-(6-fluoro-1H-indol-3-yl)-5-(trifluoromethyl)pyrimidin-2-yl)amino)phenyl)propionamide] — 4.4-fold higher, 292 nM
- CC(=O)Nc1cc(Nc2nc3c(c(-c4cn(C)c5ccccc45)n2)COCC3)cc(F)c1N(C)CCN(C)C [Compound 257b, N-(2-((2-(dimethylamino)ethyl)(methyl)amino)-3-fluoro-5-((4-(1-methyl-1H-indol-3-yl)-7,8-dihydro-5H-pyrano[4,3-d]pyrimidin-2-yl)amino)phenyl)acetamide] — higher, > 10000 nM
- CCC(=O)Nc1cccc(Nc2ncc(Cl)c(Nc3ccc(C4CCCN(C(C)=O)C4)cc3OC)n2)c1 (stereo not shown) [Compound 165, N-(3-((4-((4-(1-acetylpiperidin-3-yl)-2-methoxyphenyl)amino)-5-chloropyrimidin-2-yl)amino)phenyl)propionamide] — 2.6-fold higher, 171 nM
- CC(=O)Nc1cc(Nc2nc(-c3cn(C)c4ccccc34)c3cc[nH]c3n2)cc(F)c1N(C)CCN(C)C [Compound 190, N-(2-((2-(dimethylamino)ethyl)(methyl)amino)-3-fluoro-5-((4-(1-methyl-1H-indol-3-yl)-7H-pyrrolo[2,3-d]pyrimidin-2-yl)amino)phenyl)acetamide] — within 1.5-fold, 60.4 nM
- COc1cccc2c(-c3nc(Nc4ccc(N(CCN(C)C)C(C)=O)c(NC(C)=O)c4)ncc3C(F)(F)F)c[nH]c12 [Compound 379, N-(2-acetamido-4-((4-(7-methoxy-1H-indol-3-yl)-5-(trifluoromethyl)pyrimidin-2-yl)amino)phenyl)-N-(2-(dimethylamino)ethyl)acetamide] — 2.2-fold higher, 149 nM
- CC(=O)Nc1cc(Nc2ncc(F)c(-c3c[nH]c4ccccc34)n2)ccc1N(C)CCN(C)C [Compound 259a, N-(2-((2-(dimethylamino)ethyl)(methyl)amino)-5-((5-fluoro-4-(1H-indol-3-yl)pyrimidin-2-yl)amino)phenyl)acetamide] — within 1.5-fold, 65.7 nM

same assay, conditions: KM12-Luc, 72 h, read-out: NTRK IC50 in KM12-luc

Point of comparison: CCN(CCN(C)C)c1ccc(Nc2nc(-c3cn(C)c4ccccc34)c3cc[nH]c3n2)cc1NC(C)=O [Compound 212c, N-(2-((2-(dimethylamino)ethyl)(ethyl)amino)-5-((4-(1-methyl-1H-indol-3-yl)-7H-pyrrolo[2,3-d]pyrimidin-2-yl)amino)phenyl)acetamide], IC50 43.2 nM. Against it:
- CC(=O)Nc1cc(Nc2nc(-c3cn(C)c4ccc(F)cc34)c3cc[nH]c3n2)ccc1N(C)CCN(C)C [Compound 227a, N-(2-((2-(dimethylamino)ethyl)(methyl)amino)-5-((4-(5-fluoro-1-methyl-1H-indol-3-yl)-7H-pyrrolo[2,3-d]pyrimidin-2-yl)amino)phenyl)acetamide] — 13-fold higher, 578 nM

same assay, conditions: KM12-luc cells, treated with test compounds for 72 hrs, CCK-8 viability; read-out: NTRK IC50 in KM12-luc

For CC(=O)Nc1cccc(Oc2nc(Nc3ccc4c(c3)[N+](C)(C)CCN4C)nc3[nH]ccc23)c1 [Compound 181b, 7-((4-(3-acetamidophenoxy)-7H-pyrrolo[2,3-d]pyrimidin-2-yl)amino)-1,1,4-trimethyl-1,2,3,4-tetrahydroquinoxalin-1-ium], the IC50 was > 10000 nM.

system: H1975 cells; test: Cell proliferation and growth inhibition assay (CCK-8) in H1975; type: cell-based; settings: Homo sapiens, NCI-H1975, 72 h, treated with test compounds for 72 hrs, CCK-8 viability, read-out: EGFR IC50 in H1975
Description: MV-4-11 and H1975 cells were obtained from the American Type Culture Collection and KM12-luc cells were obtained from JCRB Cell Bank. All cell lines were maintained at 37° C. with 5% C02, in media supplemented with 10% fetal bovine serum and penicillin (100 units/mL) and streptomycin (100 μg/mL). MV-4-11 cells were maintained in Iscove's Modified Dubecco's Medium, H1975 cells were cultured with RPMI 1640 media, and KM12-luc cells were maintained in Dulbecco's Modification of Eagle's Medium. CCK-8 reagent was obtained from Yeasen.
Cell proliferation was assessed by CCK-8 assay (Yeasen) per the manufacturer's instructions. The MV-4-11 (AML), H1975, and KM12-luc cells were seeded at 30,000, 3,000 and 2,500 cells per well onto 96-well plates, and after a 24 h incubation, the cells were treated with test compounds for 72 hrs. Cell viability was assayed by incubating the cells with CCK-8 reagent for 1-4 hrs. Absorbance was measured at OD450 using the Beckman DTX880. The data was calculated using GraphPad Prism version 6.01. The IC50 values were fitted using a non-linear regression model with a sigmoidal dose response.

Point of comparison: COc1cnc(Nc2ccc(N(C)CCN(C)C)c(NC(C)=O)c2)nc1-c1c[nH]c2c(C)cccc12 [Compound 533, N-(2-((2-(dimethylamino)ethyl)(methyl)amino)-5-((5-methoxy-4-(7-methyl-1H-indol-3-yl)pyrimidin-2-yl)amino)phenyl)acetamide], IC50 1110 nM. Against it:
- COc1cccc2c(-c3ccnc(Nc4ccc(N(C)CCN(C)C)c(NC(C)=O)c4)n3)c[nH]c12 [Compound 554, N-(2-((2-(dimethylamino)ethyl)(methyl)amino)-5-((4-(7-methoxy-1H-indol-3-yl)pyrimidin-2-yl)amino)phenyl)acetamide] — within 1.5-fold, 1030 nM

From patent US20250136576A1, “Heterocyclic Compounds and Uses Thereof” (ACEA Therapeutics, Inc., priority 2021, published 2025)
